{
  "source": "patent US20110271957A1",
  "about": "“Delivery of estrogen and bioequivalents thereof via the pulmonary tract” (BATTELLE MEMORIAL INSTITUTE, priority 2010, published 2011)",
  "origin": "cited, not measured here",
  "conditions": "intranasal delivery route",
  "data": [
    {"smiles": "C[C@]12CC[C@@H]3c4ccc(O)cc4CC[C@H]3[C@@H]1CC[C@@H]2O", "note": "[estradiol, 17β-estradiol]", "values": [
      {"measurement": "bioavailability of administered estradiol", "value": "about 25%"}
    ]}
  ]
}
